The subject of this experiment is New onset diabetic NOD mice. The experiment is described as follows: α1 anti-trypsin treatment of new onset diabetic NOD mice, blood glucose levels. In kind it is in vivo. The text has this:
Female NOD (NOD/LtJx) mice and NOD.SCID (NOD.CB17-Prkdcscid/J) mice were purchased from Jackson Laboratories (Bar Harbor, Me.) at 4 wks of age and maintained under pathogen-free conditions at the Harvard Institutes of Medicine (Boston, Mass.). The Harvard Medical School institutional review board approved all animal studies.
Blood glucose levels of NOD mice were monitored twice weekly with the Accu-Check blood glucose monitor system (Roche, Indianapolis, Ind.). When non-fasting blood glucose levels were in excess of 200 mg/dl on three consecutive measurements a diagnosis of new onset of diabetes was made. Mice with blood glucose levels between 250 to 350 mg/dl were used for the experiment described below. […] The 25% residual beta cell mass is similar to that found in newly diagnosed patients with T1DM.
New onset diabetic NOD mice were divided into two groups and treated with α1 anti-trypsin while simultaneously receiving intense insulin treatment (Group 1) or implantable insulin pellets (Group 2).
For the animals in Group 1, insulin doses were calibrated on the basis of three blood glucose measurements per day. The goal was to maintain blood glucose levels between 100-160 mg/dl. For blood glucose levels in excess of 160 mg/dl, NPH insulin was administered i.p. in doses ranging from 1 to 4 International Units depending upon the magnitude of hyperglycemia. For blood glucose level between 160 and 200 mg/dl, 1 IU was given. For blood glucose levels between 200 and 250 mg/dl, 2 IU of NPH insulin were given. For blood glucose levels between 250 and 300 mg/dl, 2 IU of NPH insulin were given. For blood glucose levels between 300 and 350 mg/dl, 3 IU of NPH insulin were given. For blood glucose levels in excess of 350 mg/dl, 4 IU of NPH insulin were given. Mice with high blood glucose levels in excess of 400 mg/dl for 2 days also received 0.2-0.4 ml warm normal saline subcutaneously in order to treat glycosuria-associated dehydration.
The animals in Group 2, LinBit™ sustained release insulin implants were used for management of hyperglycemia. LinBit™ sustained release insulin implants were purchased from LinShin Canada Inc. The LinBit™ implants (3-mm in length and 2 mm in diameter) were made from an admixture of insulin and micro-recrystallized palmitic acid and were erodible in vivo after being placed subcutaneously. The insulin release rate was about 0.1 U/day/implant for the time period over 2-4 weeks.
In our experiments, one or 2 LinBit™ implants were placed subcutaneously under the mid dorsal skin in newly onset diabetic mice with 3 previous measurements of blood glucose levels >200 mg/dL. The mice were anesthesized with ketamine/xylazine and the hair on the dorsal skin from a spot about 1 cm^2 was clipped using a small scissors with curved tips. […]

One substance from patent US20180099031A1, “DIABETES TREATMENT” (BETH ISRAEL DEACONESS MEDICAL CENTER, priority 2013, published 2018) can be followed below.

For the substance “α1 anti-trypsin: Aralast NP, a human α1-proteinase inhibitor derived from pooled human plasma, purchased from Baxter”, the blood glucose levels entry (Group 1: with intense insulin therapy (NPH insulin i.p., three glucose measurements per day), Aralast NP 2 mg i.p. every 3 days, five injections, experiment 60-100 days, FIG. 1) is “fell to normoglycemic levels shortly after treatment began and remained at normal levels for the entire duration of the experiment”. In addition, the “blood glucose levels shortly after treatment began” value (Group 2: with LinBit insulin implants s.c., Aralast NP 2 mg i.p. every 3 days, five injections, FIG. 2) is reported as “fell to normoglycemic levels shortly after treatment began”. Also, the “effect on diabetic state” value (glucose levels maintained within normal limits (50-120 mg/dL) by intensive insulin therapy) is on record as “curative effect” and the “effect on diabetic state” value (hyperglycemic state managed by subcutaneously placed insulin pellets) was “less effective”.
